# Data: paper PMC6212438, “Vapor detection and discrimination with a panel of odorant receptors” (Nature Communications, 2018)
# Target: T1, Olfr1484 (Mus musculus, UniProt Q8VEU6)
# T1 construct: gene Or5b122; full ORF with N-terminal Rho-tag (first 20 residues of human rhodopsin), Hana3A cells, co-expressed RTP1S
# T1 sequence (Q8VEU6 1-315): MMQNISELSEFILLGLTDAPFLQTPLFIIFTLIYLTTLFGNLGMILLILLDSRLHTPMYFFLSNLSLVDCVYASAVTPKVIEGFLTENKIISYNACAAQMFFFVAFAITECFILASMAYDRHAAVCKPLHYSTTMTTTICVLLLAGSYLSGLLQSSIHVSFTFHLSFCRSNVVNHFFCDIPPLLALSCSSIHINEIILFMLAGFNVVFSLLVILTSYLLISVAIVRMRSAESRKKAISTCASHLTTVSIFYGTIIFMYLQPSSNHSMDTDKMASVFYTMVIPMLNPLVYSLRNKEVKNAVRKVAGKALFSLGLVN
# Assay: GloSensor cAMP luminescence in Hana3A cells
# Type: cell-based
# Settings: agonist; vapor-phase stimulation, odorant diluted in mineral oil
smiles,measurement,value
O=C1CCCCC1 [cyclohexanone],GloSensor cAMP luminescence in Hana3A cells,Olfr1484 to cyclohexanone (CH)
